Each structure is given as a SMILES string.

The subject of this assay is rabbit skeletal myofibrils (approximately 90% fast fibers). Description: Activation of fast skeletal myofibrils (PUMA coupled-enzyme ATPase assay, AC1.4). It is filed as biochemical. The conditions noted are these: concentration at which the compound increased enzymatic activity by 40%, calcium at pCa25.

Turning to `COc1cccc(Cc2nsc(NC[C@H](C)c3ccc(F)cc3)n2)c1` [[(2R)-2-(4-fluorophenyl)propyl]{3-[(3-methoxyphenyl)methyl](1,2,4-thiadiazol-5-yl)}amine], the “Mean AC1.4” value (Table 2) is reported as “B (B=1-10 uM)”. On the same count and under the same terms, under `C[C@H](CNc1nc(-c2cn[nH]c2)ns1)c1ccc(F)cc1` [[(2S)-2-(4-fluorophenyl)propyl](3-pyrazol-4-yl(1,2,4-thiadiazol-5-yl))amine] stands “B (B=1-10 uM)”; under `COc1cccc(Cc2nsc(NC[C@@H](C)c3ccc(F)cc3)n2)c1` [[(2S)-2-(4-fluorophenyl)propyl]{3-[(3-methoxyphenyl)methyl](1,2,4-thiadiazol-5-yl)}amine], “A (A=<1 uM)”; under `COc1cccc(Cc2nsc(NCc3ccc(Cl)c(Cl)c3)n2)c1` [[(3,4-dichlorophenyl)methyl]{3-[(3-methoxyphenyl)methyl](1,2,4-thiadiazol-5-yl)}amine], “D (D=>20 uM)”. In the case of `Fc1ccc(Cc2nsc(NCc3ccc(Cl)c(Cl)c3)n2)cc1` [[(3,4-dichlorophenyl)methyl]{3-[(4-fluorophenyl)methyl])1,2,4-thiadiazol-5-yl)}amine], for the setting “Table 2”, the “Mean AC1.4” value was “D (D=>20 uM)”. Regarding `COc1cccc(Cc2nsc(NCc3ccc(Cl)cc3)n2)c1` [[(4-chlorophenyl)methyl]{3-[(3-methoxyphenyl)methyl](1,2,4-thiadiazol-5-yl)}amine], under “Table 2”, the “Mean AC1.4” value is on record as “D (D=>20 uM)”. On the same count and under the same terms, under `Clc1ccc(CNc2nc(Cc3ccc(Cl)cc3)ns2)cc1` [[(4-chlorophenyl)methyl]{3-[(4-chlorophenyl)methyl](1,2,4-thiadiazol-5-yl)}amine] stands “D (D=>20 uM)”; under `Fc1ccc(Cc2nsc(NCc3ccc(Cl)cc3)n2)cc1` [[(4-chlorophenyl)methyl]{3-[(4-fluorophenyl)methyl])1,2,4-thiadiazol-5-yl)}amine], “D (D=>20 uM)”; under `CN(C)Cc1nsc(NCC(C)(C)c2ccc(F)cc2)n1` [[(5-{[2-(4-fluorophenyl)-2-methylpropyl]amino}(1,2,4-thiadiazol-3-yl))methyl]dimethylamine], “D (D=>20 uM)”. The same measure, in the same setting: under `CNCc1nsc(NCC(C)(C)c2ccc(F)cc2)n1` [[(5-{[2-(4-fluorophenyl)-2-methylpropyl]amino}(1,2,4-thiadiazol-3-yl))methyl]methylamine] stands “D (D=>20 uM)”. Regarding `CCOC(=O)c1ccc2nc(NCC(C)(C)c3ccc(F)cc3)sc2c1` [ethyl 2-(2-(4-fluorophenyl)-2-methylpropylamino)benzo[d] thiazole-6-carboxylate], the “Mean AC1.4” value (Table 4) was “B (B=1-10 uM)”. With `CCOC(=O)CCc1nsc(NCC(C)(C)c2ccc(F)cc2)n1` [ethyl 3-(5-{[2-(4-fluorophenyl)-2-methylpropyl]amino}-1,2,4-thiadiazol-3-yl)propanoate], the “Mean AC1.4” value (Table 2) is given as “B (B=1-10 uM)”. Same read-out and setting: then `CCOC(=O)/C=C/c1nsc(NCC(C)(C)c2ccc(F)cc2)n1` [ethyl (2E)-3-(5-{[2-(4-fluorophenyl)-2-methylpropyl]amino}(1,2,4-thiadiazol-3-yl))prop-2-enoate], with “D (D=>20 uM)”.

In the case of `COC(=O)CNc1nc(-c2cccc(C#N)c2)ns1` [methyl 2-{[3-(3-cyanophenyl)-1,2,4-thiadiazol-5-yl]amino}acetate], the “Mean AC1.4” value (Table 2) is listed as “D (D=>20 uM)”.

Take `COC(=O)N1CCN(CCc2nsc(NCC(C)(C)c3ccc(F)cc3)n2)CC1` [methyl 4-[2-(5-{[2-(4-fluorophenyl)-2-methylpropyl]amino}-1,2,4-thiadiazol-3-yl)ethyl]piperazinecarboxylate]: the “Mean AC1.4” value (Table 2) is reported as “D (D=>20 uM)”. The same measure, in the same setting: then `COC(=O)N1CCN(Cc2nsc(NCC(C)(C)c3ccc(F)cc3)n2)CC1` [methyl 4-[(5-{[2-(4-fluorophenyl)-2-methylpropyl]amino}-1,2,4-thiadiazol-3-yl)methyl]piperazinecarboxylate], with “C (C=10-20 uM)”. As to `COC(=O)c1ccc(F)c(-c2nnc(NC[C@]3(c4ncccc4F)C[C@H](F)C3)s2)c1` [methyl 4-fluoro-3-(5-((3-fluoro-1-(3-fluoropyridin-2-yl)cyclobutyl)methylamino)-1,3,4-thiadiazol-2-yl)benzoate], the “Mean AC1.4” value (Table 3) is “B (B=1-10 uM)”.

Take `CC(C)(C)OC(=O)N1CCN(Cc2nsc(NCC(C)(C)c3ccc(F)cc3)n2)CC1` [tert-butyl 4-[(5-{[2-(4-fluorophenyl)-2-methylpropyl]amino}-1,2,4-thiadiazol-3-yl)methyl]piperazinecarboxylate]: the “Mean AC1.4” value (Table 2) is “D (D=>20 uM)”. `CN(C)CCNc1nsc(NCC(C)(C)c2ccc(F)cc2)n1` [{2-[(5-{[2-(4-fluorophenyl)-2-methylpropyl]amino}(1,2,4-thiadiazol-3-yl))amino]ethyl}dimethylamine]: under “Table 2”, the “Mean AC1.4” value is recorded as “D (D=>20 uM)”. Regarding `COc1cccc(Cc2nsc(NCCc3nc(C)cs3)n2)c1` [{3-[(3-methoxyphenyl)methyl](1,2,4-thiadiazol-5-yl)}[2-(4-methyl(1,3-thiazol-2-yl))ethyl]amine], the “Mean AC1.4” value (Table 2) is listed as “D (D=>20 uM)”.

As for `COc1cccc(Cc2nsc(NCCc3cccc(C(F)(F)F)c3)n2)c1` [{3-[(3-methoxyphenyl)methyl](1,2,4-thiadiazol-5-yl)}{2-[3-(trifluoromethyl)phenyl]ethyl}amine], the “Mean AC1.4” value (Table 2) is “D (D=>20 uM)”. Still for that read-out and setting: then `Fc1ccc(Cc2nsc(NCCc3ccccn3)n2)cc1` [{3-[(4-fluorophenyl)methyl](1,2,4-thiadiazol-5-yl)}(2-(2-pyridyl)ethyl)amine], with “D (D=>20 uM)”.

Consider `Fc1ccc(Cc2nsc(NCCc3cccnc3)n2)cc1` [{3-[(4-fluorophenyl)methyl](1,2,4-thiadiazol-5-yl)}(2-(3-pyridyl)ethyl)amine], for which the “Mean AC1.4” value (Table 2) is reported as “D (D=>20 uM)”.

Take `Fc1ccc(Cc2nsc(NCCc3ccncc3)n2)cc1` [{3-[(4-fluorophenyl)methyl](1,2,4-thiadiazol-5-yl)}(2-(4-pyridyl)ethyl)amine]: for the setting “Table 2”, the “Mean AC1.4” value is recorded as “D (D=>20 uM)”.

On to `Fc1ccc(Cc2nsc(NCCc3ccccc3)n2)cc1` [{3-[(4-fluorophenyl)methyl](1,2,4-thiadiazol-5-yl)}(2-phenylethyl)amine], for which, under “Table 2”, the “Mean AC1.4” value was “D (D=>20 uM)”. Still for that read-out and setting: under `CC(C)CCNc1nc(Cc2ccc(F)cc2)ns1` [{3-[(4-fluorophenyl)methyl](1,2,4-thiadiazol-5-yl)}(3-methylbutyl)amine] stands “D (D=>20 uM)”; under `COc1ccc(CCNc2nc(Cc3ccc(F)cc3)ns2)cc1` [{3-[(4-fluorophenyl)methyl](1,2,4-thiadiazol-5-yl)}[2-(4-methoxyphenyl)ethyl]amine], “D (D=>20 uM)”; under `Cc1csc(CCNc2nc(Cc3ccc(F)cc3)ns2)n1` [{3-[(4-fluorophenyl)methyl](1,2,4-thiadiazol-5-yl)}[2-(4-methyl(1,3-thiazol-2-yl))ethyl]amine], “D (D=>20 uM)”. Same read-out and setting: under `CC(=O)OCC(=O)NCCCc1nsc(NCC(C)(C)c2ccc(F)cc2)n1` [{N-[3-(5-{[2-(4-fluorophenyl)-2-methylpropyl]amino}-1,2,4-thiadiazol-3-yl)propyl]carbamoyl}methyl acetate] stands “C (C=10-20 uM)”; under `Fc1cccnc1C1(CNc2nc(-c3ccccc3)ns2)CCC1` [{[(3-fluoro(2-pyridyl))cyclobutyl]methyl}(3-phenyl(1,2,4-thiadiazol-5-yl))amine], “B (B=1-10 uM)”.

These data come from patent US9278962B2 (Cytokinetics, Inc., priority 2011, dated 2016).
